Test results from patent US11800867B2, “Methods of repelling biting arthropods, reducing pathogen spread and treating arthropod infestation” (priority 2016, dated 2023).
Values joined by “and” are separate entries in the source; they are usually repeats but may differ in a detail not shown here. Equal values may be shown once.

What was measured:
Experiment in all cases: Filter paper choice test of repelling action (Example 6)
Format in all cases: in vivo
[1] = tested on: deer ticks (Ixodes scapularis)
Protocol: (§1) An in vitro laboratory trial was required to assess the repelling action of nootkatone applied to filter paper against cat fleas (Ctenocephalides felis), deer ticks (Ixodes scapularis), bed bugs (Cimex lectularius), and termites (Reticulitermes flavipes) in a choice test design.
(§2) The sponsor provided a sample of nootkatone (98%), which was diluted in ethanol to a 0.5% concentration. The treatment was applied to filter paper at a rate of 1 mL for a 9 cm filter paper disc, and a rate of 1.9 mL for a 15 cm filter paper disc. A negative control group, consisting of untreated filter paper, was also assessed for comparison purposes.
Deer ticks: Treated and untreated filter papers were cut in half and fitted into the bottom of a 9 cm petri dish. Treated replicates received one half treated and one half untreated filter paper; negative control replicates received untreated filter paper only. The petri dish arenas were then placed on their sides, with the control halves positioned at the lower half and the treated half at the upper half.
Deer ticks: Ticks were introduced, one at a time, to the bottom half of the control (untreated) arena, and monitored to see how long it took them to get to the upper “treated” side of the arena. Ticks were allowed up to three minutes to cross into the upper area of each arena. […] Once a tick had crossed into the upper side of the control arena, it was gently picked up with forceps and placed in the bottom half of the treated arena, and the procedure repeated. Ticks were considered “not repelled” if they crossed onto the treated side of the treated arena within three minutes.
The number of repelled ticks for each replicate was added together, and the average and standard error were calculated across all five replicates. The numbers were divided by the total number of ticks per replicate to obtain the percent repellency.

[2] = tested on: cat fleas (Ctenocephalides felis); settings: for Raw data: number of fleas on Treated half of treated arena, per replicate / Raw data: number of fleas on Untreated half of treated arena, per replicate: 0.5% nootkatone in ethanol, Replicates 1-5
Protocol: as §1, §2
Cat fleas: Treated and untreated filter papers were cut in half and fitted into the bottom of a 15 cm clear plastic cylinder. Treated replicates received one half treated and one half untreated filter paper; negative control replicates received only untreated filter paper.
Cat fleas: Cat fleas were introduced to the untreated side of each arena, and their distribution (on or under each paper) was recorded at +1, +4, and +24 hours post-introduction.
(§3) The number of insects in each location was converted to a percentage, for which the average and standard error were calculated across all five replicates.
(§4) Percent repellency was calculated with the following formula: % repellency=(1−((t/T)/(c/C)))*100 • Where t=number of insects on treated side of treated arena • T=total number of insects in treated arena • c=average number of insects on right side of untreated arenas • C=average total number of insects in untreated arenas

[3] = tested on: termites (Reticulitermes flavipes)
Protocol: as §1, §2
Termites: One long glass tube with screened ends (to provide ventilation) was used for each test container. Test containers were placed into a larger container to prevent escapes, and were kept in darkness and at high humidity for the duration of the experiment. Treated and untreated filter papers were cut into strips and fitted inside the glass tubes. Treated replicates received one treated and one untreated paper; negative control replicates received two untreated strips. The two paper strips were pushed end to end to form one continuous strip, leaving a 2 mm gap running the entire length of the tube for viewing termite activity.
Termites: Termites were placed in the center of each test container and left to distribute undisturbed for 24 hours. At the end of the exposure period, the distribution (on or under each filter paper) of termites was recorded.
as §3, §4

[4] = 0.5% nootkatone in ethanol on filter paper
[5] = 0.5% nootkatone in ethanol, 10 ticks per replicate, three minutes, Replicates 1-5
[6] = 0.5% nootkatone in ethanol, 24 Hours post introduction, Replicates 1-3

## C=C(C)[C@@H]1CCC2=CC(=O)C[C@@H](C)[C@]2(C)C1 [Nootkatone, nootkatone]
[1]; [4]
  Repellency (conclusion in words): highly repellent
[1]; [5]
  Raw data: number of ticks Not repelled, per replicate: 0 (3×) and 1 (2×)
  Raw data: number of ticks Repelled, per replicate: 9 (2×) and 10 (3×)
[1]; nootkatone (98%) 0.5% in ethanol on filter paper, treated upper half, up to three minutes to cross
  Calculated percent repellency (average ± SE): 96.0 ± 2.4%
[2]; [4]
  Repellency (conclusion in words): some potential repellency
[2]; 1 Hour post introduction
  Raw data: number of fleas on Treated half of treated arena, per replicate: 3 (2×) and 8 and 6 and 4
  Raw data: number of fleas on Untreated half of treated arena, per replicate: 2 and 4 (2×) and 7 and 3
[2]; 4 Hours post introduction
  Raw data: number of fleas on Treated half of treated arena, per replicate: 2 and 1 and 3 (2×) and 4
  Raw data: number of fleas on Untreated half of treated arena, per replicate: 9 and 7 and 6 (2×) and 4
[2]; 24 Hours post introduction
  Raw data: number of fleas on Treated half of treated arena, per replicate: 0 and 2 and 4 and 1 (2×)
  Raw data: number of fleas on Untreated half of treated arena, per replicate: 8 (2×) and 6 (2×) and 9
[2]; nootkatone (98%) 0.5% in ethanol on filter paper, half treated, half untreated arena
  Calculated percent repellency (average ± SE): 61.9 ± 15.0%
[3]; [4]
  Repellency (conclusion in words): highly repellent
[3]; [6]
  Raw data: number of termites on Treated strip of treated tube, per replicate: 0
  Raw data: number of termites on Untreated strip of treated tube, per replicate: 10
[3]; nootkatone (98%) 0.5% in ethanol on filter paper strips, one treated, one untreated, 24 hours
  Calculated percent repellency (average ± SE): 100.0 ± 0.0%
